For 2 compounds, Activity results are on record in ChEMBL document CHEMBL1145420, “On sampling of fragment space” (J Med Chem, 2007).

Bounds are passed on as bounds.

Assay [1] concerns the target Dipeptidyl peptidase 2 (Homo sapiens) (UniProt Q9UHL4). The assay can be described thus: Inhibition of QPP.
The target of assay [2] is Dipeptidyl peptidase 9 (Homo sapiens) (UniProt Q86TI2). The assay can be described thus: Inhibition of DPP9.
Assay [3] deals with Dipeptidyl peptidase 8 (Homo sapiens) (UniProt Q6V1X1). In words: Inhibition of DPP8.
Assay [4] addresses T1, Prolyl endopeptidase (Homo sapiens) (UniProt P48147).
T1 sequence (whole entry): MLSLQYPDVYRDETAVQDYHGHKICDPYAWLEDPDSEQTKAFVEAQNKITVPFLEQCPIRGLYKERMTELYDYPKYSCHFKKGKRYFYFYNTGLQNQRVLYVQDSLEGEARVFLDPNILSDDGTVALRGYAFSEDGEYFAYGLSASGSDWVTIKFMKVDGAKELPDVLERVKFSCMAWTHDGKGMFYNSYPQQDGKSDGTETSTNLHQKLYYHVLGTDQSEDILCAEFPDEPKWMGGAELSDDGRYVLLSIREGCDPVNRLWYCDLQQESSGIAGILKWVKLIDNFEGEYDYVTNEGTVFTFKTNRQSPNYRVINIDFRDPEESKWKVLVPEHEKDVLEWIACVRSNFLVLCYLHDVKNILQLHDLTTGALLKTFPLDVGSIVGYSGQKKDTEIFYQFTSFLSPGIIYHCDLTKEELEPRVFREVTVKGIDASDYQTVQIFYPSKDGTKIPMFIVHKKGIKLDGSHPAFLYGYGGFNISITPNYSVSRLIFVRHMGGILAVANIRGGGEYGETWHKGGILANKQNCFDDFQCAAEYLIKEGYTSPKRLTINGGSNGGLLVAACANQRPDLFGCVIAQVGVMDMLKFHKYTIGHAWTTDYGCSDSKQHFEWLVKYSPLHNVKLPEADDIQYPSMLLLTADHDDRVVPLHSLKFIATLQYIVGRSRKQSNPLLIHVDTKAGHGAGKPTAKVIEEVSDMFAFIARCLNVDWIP
In words: Inhibition of PEP.

Assay [5] has as its target Prolyl endopeptidase FAP (Homo sapiens) (UniProt Q12884). In words: Inhibition of FAP.

Chain of Dipeptidyl peptidase 8 (Homo sapiens) (Q6V1X1 whole entry, looked up): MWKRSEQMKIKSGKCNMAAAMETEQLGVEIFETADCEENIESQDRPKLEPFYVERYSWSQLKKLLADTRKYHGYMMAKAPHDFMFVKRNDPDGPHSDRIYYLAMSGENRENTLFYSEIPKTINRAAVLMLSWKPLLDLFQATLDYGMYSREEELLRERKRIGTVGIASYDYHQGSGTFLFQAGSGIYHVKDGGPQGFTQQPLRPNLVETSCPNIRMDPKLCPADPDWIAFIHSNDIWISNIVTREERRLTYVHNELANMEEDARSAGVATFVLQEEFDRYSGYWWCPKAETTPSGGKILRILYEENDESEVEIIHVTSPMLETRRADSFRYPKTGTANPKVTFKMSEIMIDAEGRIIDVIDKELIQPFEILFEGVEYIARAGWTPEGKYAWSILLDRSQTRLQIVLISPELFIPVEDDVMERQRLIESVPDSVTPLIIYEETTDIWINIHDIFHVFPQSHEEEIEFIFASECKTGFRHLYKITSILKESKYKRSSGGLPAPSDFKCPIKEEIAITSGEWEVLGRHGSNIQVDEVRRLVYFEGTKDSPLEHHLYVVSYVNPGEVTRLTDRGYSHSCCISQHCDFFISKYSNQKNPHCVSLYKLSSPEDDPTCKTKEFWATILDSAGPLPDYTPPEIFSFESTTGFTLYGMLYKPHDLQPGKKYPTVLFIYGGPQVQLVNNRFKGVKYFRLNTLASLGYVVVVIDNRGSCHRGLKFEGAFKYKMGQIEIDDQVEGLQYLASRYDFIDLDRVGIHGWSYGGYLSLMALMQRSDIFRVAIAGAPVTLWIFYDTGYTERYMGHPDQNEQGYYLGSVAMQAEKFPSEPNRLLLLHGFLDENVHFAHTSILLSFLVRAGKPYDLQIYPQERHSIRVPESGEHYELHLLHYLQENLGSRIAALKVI
Chain of Dipeptidyl peptidase 9 (Homo sapiens) (Q86TI2 2-863 limits assumed): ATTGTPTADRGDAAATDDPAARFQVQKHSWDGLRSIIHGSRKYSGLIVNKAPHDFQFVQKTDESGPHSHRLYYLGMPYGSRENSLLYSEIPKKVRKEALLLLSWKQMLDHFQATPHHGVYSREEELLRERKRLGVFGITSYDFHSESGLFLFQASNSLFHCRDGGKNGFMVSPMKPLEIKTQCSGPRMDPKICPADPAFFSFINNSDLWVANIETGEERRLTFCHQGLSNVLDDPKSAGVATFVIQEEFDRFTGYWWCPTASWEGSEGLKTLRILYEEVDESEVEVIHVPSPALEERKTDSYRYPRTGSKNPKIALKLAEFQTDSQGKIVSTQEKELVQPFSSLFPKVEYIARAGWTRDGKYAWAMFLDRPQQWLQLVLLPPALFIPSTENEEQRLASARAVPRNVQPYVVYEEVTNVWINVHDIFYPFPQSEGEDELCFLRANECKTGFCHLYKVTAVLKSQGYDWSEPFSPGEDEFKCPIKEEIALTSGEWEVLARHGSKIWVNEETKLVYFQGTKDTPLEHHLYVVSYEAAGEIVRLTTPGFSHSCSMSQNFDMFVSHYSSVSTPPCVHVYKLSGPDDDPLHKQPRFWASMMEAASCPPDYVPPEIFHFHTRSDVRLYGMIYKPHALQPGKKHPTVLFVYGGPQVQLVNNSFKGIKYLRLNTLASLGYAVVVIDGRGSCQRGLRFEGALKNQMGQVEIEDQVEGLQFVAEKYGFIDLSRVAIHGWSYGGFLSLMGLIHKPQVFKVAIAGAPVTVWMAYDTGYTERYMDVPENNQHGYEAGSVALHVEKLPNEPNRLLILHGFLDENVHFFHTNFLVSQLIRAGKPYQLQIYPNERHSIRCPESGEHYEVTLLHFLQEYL
Chain of Prolyl endopeptidase FAP (Homo sapiens) (Q12884 whole entry): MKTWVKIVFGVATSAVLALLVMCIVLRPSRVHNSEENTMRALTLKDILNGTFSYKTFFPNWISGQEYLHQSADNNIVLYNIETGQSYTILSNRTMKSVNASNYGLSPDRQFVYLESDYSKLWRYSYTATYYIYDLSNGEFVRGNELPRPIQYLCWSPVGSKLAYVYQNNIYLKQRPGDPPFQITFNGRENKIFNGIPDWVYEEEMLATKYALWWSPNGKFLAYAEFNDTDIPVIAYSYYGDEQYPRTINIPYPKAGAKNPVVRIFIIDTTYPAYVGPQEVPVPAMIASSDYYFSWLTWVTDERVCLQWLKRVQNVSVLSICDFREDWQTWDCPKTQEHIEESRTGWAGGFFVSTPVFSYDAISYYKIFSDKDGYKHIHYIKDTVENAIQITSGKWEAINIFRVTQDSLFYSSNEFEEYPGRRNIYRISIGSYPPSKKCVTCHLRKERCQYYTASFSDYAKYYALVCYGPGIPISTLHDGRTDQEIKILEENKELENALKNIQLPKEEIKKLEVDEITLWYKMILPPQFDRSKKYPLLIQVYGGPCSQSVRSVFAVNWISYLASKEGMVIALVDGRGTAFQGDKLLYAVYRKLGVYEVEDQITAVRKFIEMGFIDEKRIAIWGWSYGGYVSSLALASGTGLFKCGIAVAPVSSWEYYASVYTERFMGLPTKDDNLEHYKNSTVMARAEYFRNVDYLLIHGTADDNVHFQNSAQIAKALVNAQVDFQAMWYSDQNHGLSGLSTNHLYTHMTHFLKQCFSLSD

Turning to `N[C@@H](CC(=O)N1CCC[C@H]1C(=O)NCc1cc(Cl)ccc1OCC(=O)NC1CC1)Cc1ccccc1`, the Activity in assay [1] is 66 µM; in assay [2], > 100 µM; in assay [3], > 10 µM.

As for `CNC(=O)C[C@H](N)Cc1ccccc1`, the Activity is 680 µM in assay [1]; > 1000 µM in assay [4]; > 1000 µM in assay [5]; > 1000 µM in assay [2]; 460 µM in assay [3].
